The record followed here is article PMC8197855, “Peptide/β-Peptoid Hybrids with Activity against Vancomycin-Resistant Enterococci: Influence of Hydrophobicity and Structural Features on Antibacterial and Hemolytic Properties” (International Journal of Molecular Sciences, 2021).

Experiment [1] concerns E. faecium 1798. Description: microbe, parasite or virus in culture. It counts as cell-based, Enterococcus faecium. The settings on record: Enterococcus faecium, 1798, 24 h, read-out: Minimum inhibitory concentration. On the procedure: (§1) Overnight cultures of the enterococcal isolates were diluted in physiological saline (0.9% NaCl) to reach a turbidity of 0.5 McFarland units (Sensititre® nephelometer and the Sensititre® McFarland Standard). Bacterial suspensions were adjusted to 5 × 10^5 CFU/mL in MHB II or BHI broth containing two-fold dilutions of peptidomimetics or conventional antibiotics in a final volume of 100 µL. The plates were incubated for 24 h at 37 °C without shaking. […] All experiments were performed in three biological replicates.

Experiment [2] concerns E. faecium 2961. Put plainly: microbe, parasite or virus in culture. In kind it is cell-based, Enterococcus faecium. To be noted: Enterococcus faecium, 2961, 24 h, read-out: Minimum inhibitory concentration. On the procedure: as §1
The subject of a further experiment is E. faecium 3978. Description: microbe, parasite or virus in culture. In kind it is cell-based, Enterococcus faecium. To be noted: Enterococcus faecium, 3978, 24 h, read-out: Minimum inhibitory concentration. As for the experimental part: as §1
In a further experiment the test system is E. faecium D344R. Put plainly: microbe, parasite or virus in culture. To be noted: Enterococcus faecium, D344R, 24 h, read-out: Minimum inhibitory concentration. In kind it is cell-based, Enterococcus faecium. On the procedure: as §1
The test system of experiment [3] is E. faecium ATCC 19434. Put plainly: microbe, parasite or virus in culture. It counts as cell-based, Enterococcus faecium. The settings on record: Enterococcus faecium, ATCC19434, 24 h, read-out: Minimum inhibitory concentration. On the procedure: (§2) Overnight cultures of the enterococcal isolates were diluted in physiological saline (0.9% NaCl) to reach a turbidity of 0.5 McFarland units (Sensititre® nephelometer and the Sensititre® McFarland Standard). Bacterial suspensions were adjusted to 5 × 10^5 CFU/mL in MHB II or BHI broth containing two-fold dilutions of peptidomimetics or conventional antibiotics in a final volume of 100 µL. The plates were incubated for 24 h at 37 °C without shaking. […] All experiments were performed in three biological replicates. […]

The subject of experiment [4] is E. faecalis ATCC 29212. Put plainly: microbe, parasite or virus in culture. It counts as cell-based, Enterococcus faecalis. To be noted: Enterococcus faecalis, ATCC29212, 24 h, read-out: Minimum inhibitory concentration. As for the experimental part:
as §2

Another experiment concerns E. faecalis 38262. Put plainly: microbe, parasite or virus in culture. It counts as cell-based, Enterococcus faecalis. To be noted: Enterococcus faecalis, 38262, 24 h, read-out: Minimum inhibitory concentration. As for the experimental part: as §1
The subject of another experiment is E. faecalis 39002. Description: microbe, parasite or virus in culture. It counts as cell-based, Enterococcus faecalis. To be noted: Enterococcus faecalis, 39002, 24 h, read-out: Minimum inhibitory concentration. As for the experimental part:
as §1

Experiment [5] has as its system E. faecium 1798. Put plainly: Broth checkerboard assay with conventional antibiotics. In kind it is cell-based, Enterococcus faecium. To be noted: antibiotic alone (-); BHI broth. On the procedure: (§3) The strain culture preparation and final volume were the same as in the MIC assay. […] The plates were incubated for 24 h at 37 °C without shaking. […] All experiments were performed in two biological replicates.
(§4) To evaluate the effect of the combinations, the fractional inhibitory concentration index (FICI) was calculated for each combination according to:ΣFIC = FICA + FICB = (CA/MICA) + (CB/MICB)
(§5) The drug interaction was scored as follows: synergy—FICI ≤ 0.5; no interaction—FICI > 0.5–4; antagonism—FICI > 4 [40].

Experiment [6] deals with E. faecium 2961. The description is as above. It counts as cell-based, Enterococcus faecium. The settings on record: antibiotic alone (-); BHI broth. As for the experimental part:
as §3, §4, §5

The subject of experiment [7] is E. faecium ATCC 19434. Described as above. In kind it is cell-based, Enterococcus faecium. The settings on record: antibiotic alone (-); BHI broth. On the procedure:
as §3, §4, §5

For experiment [8], the system named is E. faecalis ATCC 29212. Described as above. It counts as cell-based, Enterococcus faecalis. To be noted: antibiotic alone (-); BHI broth. On the procedure: as §3, §4, §5

Values after ≈ are worked out from the molar mass of the structure shown.

On to `CN[C@H](CC(C)C)C(=O)N[C@H]1C(=O)N[C@@H](CC(N)=O)C(=O)N[C@H]2C(=O)N[C@H]3C(=O)N[C@H](C(=O)N[C@H](C(=O)O)c4cc(O)cc(O)c4-c4cc3ccc4O)[C@H](O)c3ccc(c(Cl)c3)Oc3cc2cc(c3O[C@@H]2O[C@H](CO)[C@@H](O)[C@H](O)[C@H]2O[C@H]2C[C@](C)(N)[C@H](O)[C@H](C)O2)Oc2ccc(cc2Cl)[C@H]1O` [Vancomycin, vancomycin], for which the MIC was more than 256 µg/mL with E. faecium 1798 [1]; more than 256 µg/mL in the experiment on E. faecium 2961 [2]; 16 µg/mL (≈ 11 µM) in the experiment on E. faecium 3978; 2 µg/mL (≈ 1.38 µM) in the experiment with E. faecium D344R; 1 to 2 µg/mL (≈ 0.69 to 1.38 µM) in the experiment on E. faecium ATCC 19434 [3]; 2 to 4 µg/mL (≈ 1.38 to 2.76 µM) in the experiment with E. faecalis ATCC 29212 [4]. Moreover, the MIC with E. faecalis 38262 and with E. faecalis 39002 was 1 µg/mL (≈ 0.69 µM) throughout. Also, the MIC of antibiotic was more than 256 µg/mL in the experiment on E. faecium 1798 [5], more than 256 µg/mL in the experiment with E. faecium 2961 [6], 1 to 2 µg/mL with E. faecium ATCC 19434 [7] and 2 to 4 µg/mL with E. faecalis ATCC 29212 [8].
